Source: patent EP1119551B1, “NAPHTHALENECARBOXAMIDES AS TACHYKININ RECEPTOR ANTAGONISTS” (AstraZeneca AB, priority 1998, dated 2000)

Experiments:
NK1 receptor = NK1 receptor (Oryctolagus cuniculus, UniProt G1SEI7); assay: Rabbit Pulmonary Artery: NK1 in vitro functional assay (Test C); assay type: cell-based; settings: antagonism of agonist ASMSP, -log molar apparent dissociation constant KB
Description: Rabbit Pulmonary Artery: NK1 in vitro functional assay (Test C) […] Male New Zealand white rabbits are euthanized via i.v. injection into the ear vein with 60 mg/kg Nembutal (50 mg/mL). Preceding the Nembutal into the vein is Heparin (1000 units/mL) at 0.0025 mL/kg for anticoagulant purposes. The chest cavity is opened from the top of the rib cage to the sternum and the heart, lungs and part of the trachea are removed. The pulmonary arteries are isolated from the rest of the tissues and cut in half to serve as pairs. […] Responses are measured on a Grass polygraph via Grass FT-03 transducers. […] Percent inhibition is determined when a tested compound produces a statistically significant (p < 0.05) reduction of the total relaxation which is calculated using the total relaxation of the Papaverine as 100%. Potencies of the compounds are determined by calculating the apparent dissociation constants (KB) for each concentration tested using the standard equation: KB= [antagonist]/ (dose ratio - 1) [formula] where dose ratio = antilog[(agonist -log molar EC50 without compound) - (-log molar EC50 with compound)]. The KB values may be converted to the negative logarithms and expressed as -log molar KB (i.e. pKB). […] The EC50 values are converted to negative logarithms and expressed as -log molar EC50.

NK2 receptor = target: T1, NK2 receptor (Oryctolagus cuniculus, UniProt P79218); assay: Rabbit Pulmonary Artery: NK2 in vitro functional assay (Test D); assay type: cell-based; settings: antagonism of agonist BANK, -log molar apparent dissociation constant KB, read-out: NK2 pKb (Test D) (converted)
T1 construct: The pulmonary arteries are isolated from the rest of the tissues, then rubbed over an intimal surface to remove the endothelium; from tissue; host or cells: rabbit pulmonary artery rings (endothelium removed)
T1 sequence (P79218 1-384): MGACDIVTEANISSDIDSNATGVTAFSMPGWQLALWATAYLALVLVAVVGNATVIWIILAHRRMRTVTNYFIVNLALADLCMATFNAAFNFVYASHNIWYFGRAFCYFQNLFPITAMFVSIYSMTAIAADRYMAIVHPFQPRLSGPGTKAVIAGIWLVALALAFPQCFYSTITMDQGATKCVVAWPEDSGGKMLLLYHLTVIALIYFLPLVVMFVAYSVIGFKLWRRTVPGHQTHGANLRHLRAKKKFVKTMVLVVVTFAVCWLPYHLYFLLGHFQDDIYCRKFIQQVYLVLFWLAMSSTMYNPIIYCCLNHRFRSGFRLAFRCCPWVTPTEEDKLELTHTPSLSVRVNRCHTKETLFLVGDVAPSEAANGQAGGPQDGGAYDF
Description: The ability of a compound of the invention to antagonize the action of the agonist [β-ala8] […] Male New Zealand white rabbits are euthanized via i.v. injection into the ear vein with 60 mg/kg Nembutal (50 mg/mL). Preceding the Nembutal into the vein is Heparin (1000 units/mL) at 0.0025 mL/kg for anticoagulant purposes. The chest cavity is opened from the top of the rib cage to the sternum and a small incision is made into the heart so that the left and right pulmonary arteries can be cannulated with polyethylene tubing (PE260 and PE190 respectively). […] Responses are measured on a Grass polygraph via Grass FT-03 transducers. […]
Percent inhibition is determined when a tested compound produces a statistically significant (p < 0.05) reduction of the total contraction which is calculated using the total contraction of the BaCl2 as 100%. Potencies of the compounds are determined by calculating the apparent dissociation constants (KB) for each concentration tested using the standard equation: KB = [antagonist]/ (dose ratio - 1) [formula] where dose ratio = antilog[(agonist -log molar EC50 without compound) - (-log molar EC50 with compound)]. The KB values may be converted to the negative logarithms and expressed as -log molar KB (i.e. pKB). […] The EC50 values are converted to negative logarithms and expressed as -log molar EC50.

NK1 receptor, sequence (G1SEI7 1-407): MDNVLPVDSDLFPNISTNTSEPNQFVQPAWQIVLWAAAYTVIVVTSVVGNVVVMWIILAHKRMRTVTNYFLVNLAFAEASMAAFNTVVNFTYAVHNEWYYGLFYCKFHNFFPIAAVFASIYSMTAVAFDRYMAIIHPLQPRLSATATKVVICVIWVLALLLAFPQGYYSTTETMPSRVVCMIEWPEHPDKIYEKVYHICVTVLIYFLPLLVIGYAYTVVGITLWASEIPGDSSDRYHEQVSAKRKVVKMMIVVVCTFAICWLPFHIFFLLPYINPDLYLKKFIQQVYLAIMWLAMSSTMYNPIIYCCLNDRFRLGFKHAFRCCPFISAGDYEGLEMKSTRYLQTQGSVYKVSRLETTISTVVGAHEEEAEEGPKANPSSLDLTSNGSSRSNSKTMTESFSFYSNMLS

NK1 pKb (Test C) (NK1 receptor) | Kb (NK2 receptor) | SMILES
9.5 | 0.0501 µM | COc1c(C#N)cc2ccccc2c1C(=O)N(C)C[C@@H](CCN1CCC(c2ccccc2[S@+](C)[O-])CC1)c1ccc(Cl)c(Cl)c1.O=C(O)CC(O)(CC(=O)O)C(=O)O [Example 1, N-[(S)-2-(3,4-Dichlorophenyl)-4-[4-[(S)-2-methylsulfinylphenyl]-1-piperidinyl]butyl]-N-methyl-2-methoxy-3-cyano-1-naphthamide citrate]
9.6 | 0.0501 µM | CCc1c(C#N)cc2ccccc2c1C(=O)N(C)C[C@@H](CCN1CCC(c2ccccc2[S@+](C)[O-])CC1)c1ccc(Cl)c(Cl)c1.O=C(O)CC(O)(CC(=O)O)C(=O)O [Example 18, N-[(S)-2-(3,4-Dichlorophenyl)-4-[4-[(S)-2-methylsulfinylphenyl]-1-piperidinyl]butyl]-N-methyl-3-cyano-2-ethyl-1-naphthamide citrate]
